Test results reported in article PMC8954640, “Pyranodipyran Derivatives with Tyrosyl DNA Phosphodiesterase 1 Inhibitory Activities and Fluorescent Properties from Aspergillus sp. EGF 15-0-3” (Marine Drugs, 2022).
Values belong to the compound of their own block, whether it stands above or below them.

Columns and labels:
TDP1 = TDP1 (Homo sapiens, UniProt Q9NUW8); assay: TDP1 inhibition fluorescence assay (quenched fluorescent single-stranded oligonucleotide substrate); type: biochemical; conditions: substrate 5′-FAM-AGGATCTAAAAGACTT-BHQ-3′, repeated at least three times, read-out: TDP1 Inhibition (IC50 ± SD)
TDP1, sequence (Q9NUW8 whole entry): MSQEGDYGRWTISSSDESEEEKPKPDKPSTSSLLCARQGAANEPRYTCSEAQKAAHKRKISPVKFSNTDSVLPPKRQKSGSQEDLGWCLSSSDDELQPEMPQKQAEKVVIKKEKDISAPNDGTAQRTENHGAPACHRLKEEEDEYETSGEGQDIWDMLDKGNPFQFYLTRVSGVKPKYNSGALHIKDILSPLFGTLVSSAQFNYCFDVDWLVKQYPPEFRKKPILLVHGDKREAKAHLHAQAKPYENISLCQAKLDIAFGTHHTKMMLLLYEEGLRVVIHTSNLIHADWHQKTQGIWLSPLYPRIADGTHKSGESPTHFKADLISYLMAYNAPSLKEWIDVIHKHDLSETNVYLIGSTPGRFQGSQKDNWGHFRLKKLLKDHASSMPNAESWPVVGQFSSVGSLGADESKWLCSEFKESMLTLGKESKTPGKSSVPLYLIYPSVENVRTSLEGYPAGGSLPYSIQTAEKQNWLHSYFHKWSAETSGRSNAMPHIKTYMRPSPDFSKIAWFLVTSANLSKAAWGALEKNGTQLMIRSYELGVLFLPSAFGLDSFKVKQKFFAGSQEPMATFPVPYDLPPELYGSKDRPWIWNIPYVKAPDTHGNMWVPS
Description: Considering the chiral properties of compounds will affect their activity, all of the obtained compounds, including racemates and enantiomers, were screened for TDP1 inhibition through a fluorescence assay using a quenched fluorescent single-stranded oligonucleotide (5′-FAM-AGGATCTAAAAGACTT-BHQ-3′) as substrate. […] To further investigate the mechanism of the TDP1 inhibitory activity of (+)-6 and (−)-6, a hypothetical binding mode was built using in silico docking from the X-ray crystal structure of humanized TDP1-inhibitor (PDB: 6DJD) to evaluate the mode of interactions of (+)-6 and (−)-6 with TDP1. The inhibitor was docked into the binding site. The tricyclic core of (+)-6 binds to the DNA binding groove in the proximity of the catalytically important residue His263, indicating a potential π–π stacking interaction stabilizing the inhibitor TDP1 complex. Three hypothetical hydrogen bonds were observed between the phenol hydroxy group and the amide group of residue Asn516 (2.9 Å), the 1″-hydroxy group and Ser518 residue (3.0 Å), and the pyran O atom and Ser400 residue (3.5 Å), which might contribute to TDP1 inhibition. Similarly, the polycyclic core scaffold of (−)-6 also lied along the DNA binding groove (Figure 7B), and the H-bonds (3.1 Å) between the phenol hydroxy group and the amide group of residue Asn516 was also observed. In addition, two H-bonds formed between the 2″-hydroxyl group and Ser400 residue (2.5 Å) and the pyran oxygen atom and phenol hydroxy group of Tyr204 residue (3.1 Å). […] The gold score values of (+)-6 and (−)-6 were 55.62 and 44.90, respectively. […] The mechanism of the TDP1 inhibitory activity of (±)-6 remains to be validated by biophysical assays in further research.
The TDP1 inhibition was tested through a fluorescence assay according to a previously reported method. Detailed procedures are included in the Supporting Information. […]
Briefly, TDP1 solution (20 μL/well, 0.02 μL of purified TDP1 (100 nM) in 10 mM Tris-HCl, pH 7.5, 50 mM KCl, 1 mM EDTA, 1 mM DTT) was dispensed into wells of a white 384-well plate (NEST). The tested compound solution in DMSO (5 μL) was pinned into assay plates and incubated at room tempera-ture for 30 min. During this time, the plates were read by a Flash multimode reader (Molecular Devices) at Ex485/Em510 nm to identify false-positive compound that had autofluorescence. The linear oligonucle-otide substrate 5′-FAM-AGGATCTAAAAGACTT-BHQ-3′ (25 μL, 35 nM) was dispensed into the wells to start the reaction. The whole plate was immediately read five times using a kinetic read on the Flash […]
multimode reader (Molecular Devices) (Ex485/Em510 nm). TDP1 percentage inhibition of the tested com-pound was calculated by comparing the rate of increase in fluorescence throughout time for the com-pound-treated wells to that of DMSO control wells. […]

[1] = Change in fluorescence emission upon photoirradiation with 365 nm UV light; type: physicochemical; conditions: MeOH
Experimental: In addition, the fluorescent properties of 1–6 were also evaluated. […] Meanwhile, compounds 1–6 with the concentration of […] were exposed to […] UV light, and their fluorescence emission spectra were recorded (Figure 10) as a control experiment because the assay used to assess TDP1 inhibition was a fluorescence assay. […] In addition, during the TDP1 inhibition assay, the tested compound solutions were read by a Flash multimode reader at Ex485/Em510 nm to identify false-positive compounds that had autofluorescence.
(§1) Each probe was prepared at 300 μg/mL in MeOH. The absorption spectra were recorded from 200 to 400 nm using a Chirascan circular dichroism spectrometer ([…]). The fluorescence spectra were recorded from 385 to 750 nm with an excitation wavelength of 365 nm using Edinburgh Instruments FLS1000. For UV-irradiated probes, each probe was exposed to 365 nm UV light from a handheld UV lamp for a certain time, and the fluorescence spectra were then recorded using the same method mentioned above.

[2] = Measurement of fluorescent properties in MeOH; type: physicochemical; conditions: 300 μg/mL in MeOH; for Stokes Shift / λ em: λexc = 365 nm
Experimental: as §1

SMILES: CCCCC[C@H]1O[C@H](OC)c2c3c(cc(O)c2[C@H]1OC)[C@H](O)[C@H](O)C(C)(C)O3 [(+)-6, Aspergiletal D]
IC50 (TDP1): 27.8 ± 1.73 µM

SMILES: CCCCC[C@H]1O[C@H](OC)c2c3c(cc(O)c2[C@@H]1OC)C=CC(C)(C)O3 [(+)-2, eurotiumide F]
IC50 (TDP1): > 100 µM

SMILES: CCCCC[C@H]1O[C@H](OC)c2c3c(cc(O)c2[C@H]1OC)C=C(OC)C(C)(C)O3 [(+)-3, Aspergiletal A]
IC50 (TDP1): > 100 µM

SMILES: CCCCCC1OC(OC)c2c3c(cc(O)c2C1OC)C=CC(C)(C)O3 (racemic) [(±)-2, (±)-Eurotiumide F]
IC50 (TDP1): 57.8 ± 2.2 µM | change of fluorescence with time upon 365 nm irradiation (photobleaching) ([1]; listed as 2): responded similarly to 1 but with a smaller magnitude improvement in fluorescence | ε ([2]; listed as 2): 70590.11 M^–1cm^–1 | λ abs ([2]; listed as 2): 223 nm | φ F ([2]; listed as 2): 0.0225 | Stokes Shift ([2]; listed as 2): 241 nm | λ em ([2]; listed as 2): 464 nm

SMILES: CCCCC[C@H]1O[C@H](OC)c2c3c(cc(O)c2[C@H]1OC)C[C@H](OC)C(C)(C)O3 [(+)-4, Aspergiletal B]
IC50 (TDP1): > 100 µM

SMILES: CCCCCC1OC(OC)c2c3c(cc(O)c2C1OC)C=C(OC)C(C)(C)O3 (racemic) [(±)-3, (±)-Aspergiletal A]
IC50 (TDP1): > 100 µM | change of fluorescence with time upon 365 nm irradiation (photobleaching) [1]: significant loss of fluorescence with time | ε [2]: 61279.01 M^–1cm^–1 | λ abs [2]: 206 nm | φ F [2]: 0.0048 | Stokes Shift [2]: 266 nm | λ em [2]: 472 nm

SMILES: CCCCC[C@H]1O[C@H](OC)c2c3c(cc(O)c2[C@H]1OC)C[C@H](O)C(C)(C)O3 [(+)-5, Aspergiletal C]
IC50 (TDP1): > 100 µM

SMILES: CCCCC[C@H]1O[C@H](OC)c2c3c(cc(O)c2[C@H]1OC)C=CC(C)(C)O3 [(+)-1, eurotiumide G]
IC50 (TDP1): > 100 µM

SMILES: CCCCCC1OC(OC)c2c3c(cc(O)c2C1OC)C=CC(C)(C)O3 (racemic) [(±)-1, (±)-Eurotiumide G]
IC50 (TDP1): > 100 µM | change of fluorescence with time upon 365 nm irradiation (photobleaching) ([1]; listed as 1): increased substantially with time | ε ([2]; listed as 1): 125388.61 M^–1cm^–1 | λ abs ([2]; listed as 1): 221 nm | φ F ([2]; listed as 1): 0.0392 | Stokes Shift ([2]; listed as 1): 224 nm | λ em ([2]; listed as 1): 445 nm

The next lines start with results.

IC50 (TDP1): > 100 µM | ε [2]: 106186.60 M^–1cm^–1 | λ abs [2]: 203 nm | φ F [2]: 0.0482 | Stokes Shift [2]: 229 nm | λ em [2]: 432 nm
SMILES: CCCCCC1OC(OC)c2c3c(cc(O)c2C1OC)CC(O)C(C)(C)O3 (racemic) [(±)-5, (±)-Aspergiletal C]
change of fluorescence with time upon 365 nm irradiation (photobleaching) [1]: significant loss of fluorescence with time

IC50 (TDP1): > 100 µM
SMILES: CCCCC[C@@H]1O[C@@H](OC)c2c3c(cc(O)c2[C@@H]1OC)C=C(OC)C(C)(C)O3 [(−)-3, Aspergiletal A]

IC50 (TDP1): > 100 µM | change of fluorescence with time upon 365 nm irradiation (photobleaching) [1]: inert to photobleaching | ε [2]: 208307.41 M^–1cm^–1 | λ abs [2]: 225 nm | φ F [2]: 0.0649 | Stokes Shift [2]: 203 nm | λ em [2]: 428 nm
SMILES: CCCCCC1OC(OC)c2c3c(cc(O)c2C1OC)CC(OC)C(C)(C)O3 (racemic) [(±)-4, (±)-Aspergiletal B]

IC50 (TDP1): > 100 µM
SMILES: CCCCC[C@@H]1O[C@@H](OC)c2c3c(cc(O)c2[C@H]1OC)C=CC(C)(C)O3 [(−)-2, eurotiumide F]

IC50 (TDP1): > 100 µM
SMILES: CCCCCC1OC(OC)c2c3c(cc(O)c2C1OC)C=CC(C)(C)O3 (single isomer, unassigned; (-)) [(−)-1, eurotiumide G]

IC50 (TDP1): 37.3 ± 3.63 µM
SMILES: CCCCC[C@@H]1O[C@@H](OC)c2c3c(cc(O)c2[C@@H]1OC)[C@@H](O)[C@@H](O)C(C)(C)O3 [(−)-6, Aspergiletal D]

IC50 (TDP1): > 100 µM
SMILES: CCCCC[C@@H]1O[C@@H](OC)c2c3c(cc(O)c2[C@@H]1OC)C[C@@H](O)C(C)(C)O3 [(−)-5, Aspergiletal C]

IC50 (TDP1): 6.5 ± 0.73 µM | ε [2]: 127827.28 M^–1cm^–1 | λ abs [2]: 225 nm | φ F [2]: 0.0416 | Stokes Shift [2]: 199 nm | λ em [2]: 424 nm
SMILES: CCCCCC1OC(OC)c2c3c(cc(O)c2C1OC)C(O)C(O)C(C)(C)O3 (racemic) [(±)-6, (±)-Aspergiletal D]
change of fluorescence with time upon 365 nm irradiation (photobleaching) [1]: significant loss of fluorescence with time

IC50 (TDP1): > 100 µM
SMILES: CCCCC[C@@H]1O[C@@H](OC)c2c3c(cc(O)c2[C@@H]1OC)C[C@@H](OC)C(C)(C)O3 [(−)-4, Aspergiletal B]
